Laboratory results from patent publication US20240382497A1, “PROPHYLACTIC OR THERAPEUTIC AGENT FOR HYPOXIC INJURY, ISCHAEMIA-REPERFUSION INJURY AND INFLAMMATION, CELL PROTECTION AGENT FOR TRANSPLANTATION, AND BIO-PRESERVATION AGENT” (priority 2018, published 2024).

How the values were obtained:
[1] = tested on: C57/BL6N male mice; assay: Survival time in 4% oxygen after intraperitoneal NaHS or 2-methylthiophene; assay type: in vivo, mouse; settings: 200 μl i.p. of 1% solution; all individuals; observation time of 30 min
Procedure: Thus, the survival time was measured at the remaining three concentrations. As a control, the survival time of the mice intraperitoneally injected with saline or 2-methylthiophene (1% solution) in 4% oxygen was measured.

[2] = tested on: TNF-α; assay: Blood TNF-α after LPS and 4E2MT, Trpa1 knockout and control mice; assay type: in vivo, mouse; settings: 1 hr after simultaneous i.p. administration with LPS
Procedure: Lipopolysaccharide (LPS) (0.6 mg/kg) was intraperitoneally administered to male Balb/c mice (about 2-3 months old) to generate a sepsis model. Immediately after the LPS administration, 200 μl (about 80 mg/kg) of a solution prepared by diluting various heterocyclic compounds and isothiocyanate compounds 100 times with saline was intraperitoneally administered. Blood samples were collected 60 min after LPS and compound administration, EDTA plasma was prepared, and the blood level of inflammatory cytokine TNF-a was measured by the ELISA method.
Changes in the body surface temperature, survival time under a hypoxic environment, and TNF-α production in blood by LPS administration induced by intraperitoneally administration of thiazoline-related compound (4-ethyl-2-methyl-2-thiazoline; 4E2MT) measured by a method similar to those in Example 3, Example 10, or Example 18.

[3] = tested on: male C57/BL6N mouse; assay: Survival time in 4% oxygen after Trpa1 agonist i.p.; assay type: in vivo; settings: wild-type mouse; i.p. Δ9-THC 10 mg/kg, AITC 40 mg/kg, APAP 300 mg/kg; 30 min before 4% oxygen; versus saline
Procedure: (§1) Saline or known Trpa1 agonists Δ9-tetrahydrocannabinol (Δ^9-THC; 10 mg/kg), allyl isothiocyanate (AITC; 40 mg/kg), or acetaminophen (APAP; 300 mg/kg) was intraperitoneally administered to male C57/BL6N mouse (about 3-month-old) and, 30 min later, the mouse was placed in a tight box with adjusted oxygen concentration of 4%, and the survival time of the mouse was measured for 30 min at maximum. As to APAP, the survival time in 4% oxygen environment was also measured using male Trpa1 knockout and littermate hetero mice (about 3-to 6-month-old).

[4] = tested on: Trpa1 knockout and littermate hetero mice; assay: Survival time in 4% oxygen after APAP i.p., Trpa1 knockout and hetero mice; assay type: in vivo, mouse; settings: 300 mg/kg i.p., versus saline
Procedure: as §1

[5] = Yu et al., Cell Physiol Biochem 36: 1539-1551, 2015; cited from earlier work
[6] = tested on: C57/BL6N male mice; assay: Survival time in 4% oxygen after intraperitoneal administration; assay type: in vivo, mouse; settings: Example 12, about 80 mg/kg i.p., 30 min before 4% oxygen, Kaplan-Meier, versus saline
Procedure: Influence of intraperitoneal administration of various kinds of heterocyclic compounds on the survival time of mouse under hypoxic environment was analyzed. The odor molecule was administered by a method of intraperitoneally injecting 200 μl (about 80 mg/kg, i.p.) of a solution diluted 100 times with saline and, 30 min later, the mice were placed in a tight box with adjusted oxygen concentration of 4%, and the survival time of the mouse was measured for 30 min at maximum. As a control, the survival time of the mice intraperitoneally injected with saline (control) was measured.
By a method similar to that in Example 10, influence of intraperitoneal administration of various isothiocyanate compounds (about 80 mg/kg, i.p.) on the survival time of mouse under hypoxic environment was analyzed.
About 3-month-old C57/BL6N male mice were intraperitoneally injected with 200 μl (about 80 mg/kg, i.p.) of a thiomorpholine solution diluted 100 times with saline and, 30 min later, the mice were placed in a tight box with adjusted oxygen concentration of 4%, and the survival time of the mouse was measured. As a control, the survival time of the mice intraperitoneally injected with saline was measured.

[7] = tested on: wild-type and Trpa1 knockout mice; assay: Survival time in 4% oxygen, thiomorpholine i.p., wild-type and Trpa1 knockout mice; assay type: in vivo, mouse; settings: about 80 mg/kg i.p.
Procedure: A heterocyclic compound (thiomorpholine) (200 μl, about 80 mg/kg) diluted 100 times with saline was intraperitoneally injected to male wild-type and Trpa1 knockout mice (about 3 to 6-month-old) and, 30 min later, the mice were placed in a tight box in which the oxygen concentration was adjusted to 4%, and the survival time of the mice was measured.

[8] = tested on: mice; assay: Oxygen consumption after intraperitoneal injection; assay type: in vivo, mouse; settings: versus saline
Procedure: An influence of a thiazoline-related compound on the oxygen consumption was analyzed. The oxygen consumption was analyzed using an energy metabolism measurement device for small animals (ARCO-2000; ARCO SYSTEM). About 3-month-old C57/BL6N male mice were each placed in a measuring chamber and, after acclimation for about 2 hr, a thiazoline-related compound (2MT) was presented. The odors were presented by placing filter papers scented with 100 μl (104 mmol) of odor molecules in the measuring chamber. As a control, an experiment in which a filter paper dropped with saline was presented to the mice was also performed. The oxygen consumption was measured every one min. Mean oxygen consumption was calculated as the mean of 10 min before presenting odor and 20 min after presenting odor.
Changes in the oxygen consumption induced by intraperitoneal injection of heterocyclic compounds (2MT and Thiomorpholine (TMO) were measured by a method similar to that in Example 8.

Cc1cccs1 [2-methylthiophene]
survival time in 4% oxygen [1]: ≥ 30 min

CCC1CSC(C)=N1 (stereo not drawn) [4E2MT, 4-ethyl-2-methyl-2-thiazoline]
amount of TNF-α in blood (decreasing effect) [2]: this effect was suppressed

CCCCCc1cc(O)c2c(c1)OC(C)(C)[C@@H]1CCC(C)=C[C@@H]21 [49-THC, Δ9-tetrahydrocannabinol]
survival time in 4% oxygen [3]: extending the survival time

C=CCN=C=S [AITC, allyl isothiocyanate]
survival time in 4% oxygen [3]: extending the survival time

CC(=O)Nc1ccc(O)cc1 [APAP, acetaminophen]
survival time in 4% oxygen [3]: extending the survival time
survival time in 4% oxygen ([4]; Trpa1 knockout mice (Trpa1−/−)): such effect was not observed
survival time in 4% oxygen ([4]; control mice (Trpa1+/−)): extending the survival time

[Na+].[SH-] [NaHS]
protective effects in ischemia-reperfusion injury [5]: protective effects in ischemia-reperfusion injury

C1CSCCN1 [thiomorpholine]
survival time in 4% oxygen (hypoxia resistance) [6]: produces hypoxia resistance
survival time in 4% oxygen ([7]; Trpa1 knockout mice (Trpa1−/−), compared with wild-type mouse): survival time significantly decreased
survival time in 4% oxygen ([7]; wild-type mice (Trpa1+/+)): significantly prolonging the survival time
oxygen consumption [8]: suppress the oxygen consumption
